Reference: article PMC3782002 (Journal of Chemical Information and Modeling, 2013)

Key:
Assay type in all cases: biochemical, B. subtilis
GR-N75A [1] = target: T1, GR-N75A (Bacillus subtilis, UniProt P94556, N75A); experiment: Coupled-enzyme IC50 assay; conditions: N75A mutation
T1 sequence (P94556 1-272 N75A): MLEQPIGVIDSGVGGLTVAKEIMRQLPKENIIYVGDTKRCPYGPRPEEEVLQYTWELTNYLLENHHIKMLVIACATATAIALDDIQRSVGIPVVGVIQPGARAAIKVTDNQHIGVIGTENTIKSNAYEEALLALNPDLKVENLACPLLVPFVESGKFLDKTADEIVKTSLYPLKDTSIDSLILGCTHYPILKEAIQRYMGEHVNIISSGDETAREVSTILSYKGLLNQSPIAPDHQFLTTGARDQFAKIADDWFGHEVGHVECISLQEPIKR

GR-N75L [2] = target: T2, GR-N75L (Bacillus subtilis, UniProt P94556, N75L); experiment: Coupled-enzyme IC50 assay; conditions: N75L mutation
T2 sequence (P94556 1-272 N75L): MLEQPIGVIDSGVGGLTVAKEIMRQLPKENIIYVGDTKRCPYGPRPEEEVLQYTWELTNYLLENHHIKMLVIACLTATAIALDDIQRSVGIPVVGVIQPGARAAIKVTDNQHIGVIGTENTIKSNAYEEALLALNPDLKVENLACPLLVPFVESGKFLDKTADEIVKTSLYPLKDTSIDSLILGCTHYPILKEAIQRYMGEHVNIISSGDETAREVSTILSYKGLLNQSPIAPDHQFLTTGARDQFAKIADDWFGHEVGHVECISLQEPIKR

GR-N75A [3] = target: T1, GR-N75A; experiment: Steady-state kinetics of D- to L- racemization by circular dichroism at 220 nm
GR-N75L [4] = target: T2, GR-N75L; experiment: as above
[5] = substrate: N[C@H](CCC(=O)O)C(=O)O; experiment: as above; conditions: other: GR-WT, 25 °C, pH 8.0

Question: `O=S(=O)(O)c1nc2ccccc2[nH]1` [Compound 1, 1H-benzimidazole-2-sulfonic acid] was tested. Which “increase in IC50 compared to the IC50 for wild-type GR” value (GR-N75A [1]) did it give?
Answer: 600%

Question: What about the “increase in IC50 compared to the IC50 for wild-type GR” value (GR-N75L [2]) of the same molecule?
Answer: 50%

Question: Which results are given for `N[C@H](CCC(=O)O)C(=O)O` [Compound 3, D-glutamate]?
Answer: kcat (GR-N75A [3]): 45.6 ± 1.9 s⁻¹; Km (GR-N75A [3]; 25 °C): 730 ± 90 µM; kcat (GR-N75L [4]): 0.15 ± 0.01 s⁻¹; Km (GR-N75L [4]; 25 °C): 490 ± 100 µM

B1: GR-WT (Bacillus subtilis subsp. subtilis str. 168) (protein)
chain: MLEQPIGVIDSGVGGLTVAKEIMRQLPKENIIYVGDTKRCPYGPRPEEEVLQYTWELTNYLLENHHIKMLVIACNTATAIALDDIQRSVGIPVVGVIQPGARAAIKVTDNQHIGVIGTENTIKSNAYEEALLALNPDLKVENLACPLLVPFVESGKFLDKTADEIVKTSLYPLKDTSIDSLILGCTHYPILKEAIQRYMGEHVNIISSGDETAREVSTILSYKGLLNQSPIAPDHQFLTTGARDQFAKIADDWFGHEVGHVECISLQEPIKR
Question: Which results are given for B1?
Answer: kcat [5]: 1.64 ± 0.03 s⁻¹; kcat/Km [5]: 12600 ± 80 M⁻¹ s⁻¹
